Laboratory results as given in article PMC12494553, “A unique gating mechanism revealed by the cryo-EM structure of monomeric ATP9A flippase” (The Journal of Biological Chemistry, 2025).

Biological target: T1, ATP9A (Homo sapiens, UniProt O75110)
T1 construct: N-terminal region before Pro38 deleted; N-terminal His6-EGFP tag cut off with HRV-3C; HEK293S GnT1- (BacMam); LMNG/GDN micelles; monomer, about 90 kDa
T1 sequence (O75110 38-1047): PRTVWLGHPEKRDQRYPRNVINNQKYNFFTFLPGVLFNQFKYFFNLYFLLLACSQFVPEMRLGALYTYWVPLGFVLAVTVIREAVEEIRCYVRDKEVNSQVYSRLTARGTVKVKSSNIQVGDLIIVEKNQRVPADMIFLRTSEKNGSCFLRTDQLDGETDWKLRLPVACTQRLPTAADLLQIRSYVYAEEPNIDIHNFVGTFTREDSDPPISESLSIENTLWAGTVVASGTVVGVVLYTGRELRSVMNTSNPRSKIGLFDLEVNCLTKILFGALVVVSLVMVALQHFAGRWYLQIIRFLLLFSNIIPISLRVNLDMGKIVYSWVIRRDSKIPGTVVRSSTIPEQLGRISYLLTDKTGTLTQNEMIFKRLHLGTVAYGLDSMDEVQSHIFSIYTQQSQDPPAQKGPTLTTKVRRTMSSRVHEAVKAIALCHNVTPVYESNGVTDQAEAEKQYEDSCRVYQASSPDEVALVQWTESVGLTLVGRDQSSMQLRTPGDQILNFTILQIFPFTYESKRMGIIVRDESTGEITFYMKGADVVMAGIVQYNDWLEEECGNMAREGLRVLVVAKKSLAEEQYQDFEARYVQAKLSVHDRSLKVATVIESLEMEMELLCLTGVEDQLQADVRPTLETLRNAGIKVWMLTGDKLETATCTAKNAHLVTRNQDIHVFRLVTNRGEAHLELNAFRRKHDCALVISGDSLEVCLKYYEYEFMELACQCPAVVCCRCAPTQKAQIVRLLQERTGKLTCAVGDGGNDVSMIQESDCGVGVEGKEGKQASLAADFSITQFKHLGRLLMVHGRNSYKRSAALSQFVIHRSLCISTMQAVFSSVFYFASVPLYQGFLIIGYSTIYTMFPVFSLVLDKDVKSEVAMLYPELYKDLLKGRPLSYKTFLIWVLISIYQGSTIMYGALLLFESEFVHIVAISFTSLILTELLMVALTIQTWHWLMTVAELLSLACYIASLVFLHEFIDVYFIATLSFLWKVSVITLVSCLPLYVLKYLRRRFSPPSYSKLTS
Test: cryo-EM structure
Assay type: binding

Structure (SMILES)	cryo-EM structure (phosphate analog bound at catalytic Asp391, E2P state, open (9VDK, 2.18 Å) and closed (9VDL, 2.31 Å) forms, made from 1 mM BeSO4 and 3 mM NaF, also used as ATPase blank)	cryo-EM structure (open form, E2P BeF state, lipid modelled from density, not added, outside canonical phospholipid site)
[F][Be-]([F])[F] [BeF]	The phosphate analog BeF is bound to the catalytic Asp391	
CC(C)CCC[C@@H](C)[C@H]1CC[C@H]2[C@@H]3CC=C4C[C@@H](O)CC[C@]4(C)[C@H]3CC[C@]12C [CLR, cholesterol]		Bound phospholipids (PLs) and cholesterol (CLR) in the open form are indicated
